Reference: patent US10508085B2, “Compounds and methods for IDO and TDO modulation, and indications therefor” (Plexxikon Inc., priority 2016, dated 2019)

Key:
[1] = target: T1, Human Tryptophan 2,3-dioxygenase (TDO) (Homo sapiens, UniProt P48775); assay: Human TDO enzymatic assay (kynurenine level); assay type: biochemical; settings: 1 nM TDO, 350 μM L-Trp; geometric mean; read-out: TDO GMean: IC50 (μM) (Biochemical Assay)
T1 construct: His tag (N); made in house; host or cells: E. coli
Summary of the method: (§1)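 Compound is mixed with His-tagged enzyme from E. coli in pH 6.5 phosphate buffer containing ascorbate, methylene blue and catalase, at room temperature. IDO uses 6 nM enzyme and 10 μM Trp for 20 min. TDO uses 1 nM enzyme and 350 μM Trp for 70 min. TCA stops the reaction, and IC50 is derived from kynurenine levels.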

[2] = target: T2, human TDO (TDO-expressing HEK293 cells) (Homo sapiens, UniProt P48775); assay: Cell based kynurenine assay, TDO-expressing HEK293 cell clones; settings: TDO-expressing HEK293 cells, 24 hours, geometric mean; read-out: HEK293 TDO Kynurenine GMean IC50 (μM) (Cellular Assay)
T2 construct: expressed in transfected cells
Summary of the method: (§2)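 HEK293 clones stably expressing human IDO1 or human TDO (CMV promoter), 2.5×10^4 cells/well, given serial compound dilutions for 24 h. Kynurenine measured in supernatant; inhibition relative to cell/0.2% DMSO and media-only controls. IC50 by nonlinear regression.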

[3] = target: T3, Human Indoleamine 2,3-dioxygenase (IDO) (Homo sapiens, UniProt P14902); assay: Human IDO enzymatic assay (kynurenine level); assay type: biochemical; settings: 6 nM IDO, 10 μM L-Trp; geometric mean; read-out: IDO1 GMean: IC50 (μM) (Biochemical Assay)
T3 construct: His tag (N); made in house; host or cells: E. coli
Summary of the method: as §1

[4] = target: T4, human IDO (IDO1-expressing HEK293 cells) (Homo sapiens, UniProt P14902); assay: Cell based kynurenine assay, IDO1-expressing HEK293 cell clones; settings: IDO1-expressing HEK293 cells, 24 hours, geometric mean; read-out: HEK293 IDO1 Kynurenine GMean IC50 (μM) (Cellular Assay)
T4 construct: expressed in transfected cells
Summary of the method: as §2

Measured: IC50

T4 sequence (P14902 whole entry): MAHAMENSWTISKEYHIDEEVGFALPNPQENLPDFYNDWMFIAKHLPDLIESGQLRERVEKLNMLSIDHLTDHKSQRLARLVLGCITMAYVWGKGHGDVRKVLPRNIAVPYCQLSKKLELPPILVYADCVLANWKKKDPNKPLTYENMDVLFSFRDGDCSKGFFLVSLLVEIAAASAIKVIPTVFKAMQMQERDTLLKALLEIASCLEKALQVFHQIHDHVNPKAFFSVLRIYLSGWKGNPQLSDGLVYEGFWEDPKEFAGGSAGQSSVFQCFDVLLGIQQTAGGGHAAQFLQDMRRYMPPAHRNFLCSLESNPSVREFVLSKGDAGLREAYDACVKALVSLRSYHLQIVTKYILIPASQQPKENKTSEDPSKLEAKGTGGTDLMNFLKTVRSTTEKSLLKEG
T3 sequence (P14902 whole entry): as above
T2 sequence (P48775 whole entry): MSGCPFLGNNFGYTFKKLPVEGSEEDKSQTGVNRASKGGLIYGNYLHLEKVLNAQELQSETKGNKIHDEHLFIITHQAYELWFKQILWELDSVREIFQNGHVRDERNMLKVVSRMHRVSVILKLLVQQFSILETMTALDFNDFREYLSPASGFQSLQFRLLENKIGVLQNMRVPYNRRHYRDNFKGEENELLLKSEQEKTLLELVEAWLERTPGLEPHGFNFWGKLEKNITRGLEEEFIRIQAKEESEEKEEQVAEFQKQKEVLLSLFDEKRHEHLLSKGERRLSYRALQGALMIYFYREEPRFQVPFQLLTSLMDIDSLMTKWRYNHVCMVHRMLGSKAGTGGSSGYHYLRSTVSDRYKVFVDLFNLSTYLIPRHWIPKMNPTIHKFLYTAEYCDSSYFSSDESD
T1 sequence (P48775 whole entry): as above

COC(=O)N1CCC(C(C)(C)[C@H](O)c2cc(Cl)cc3cn[nH]c23)CC1 [Compound P-0540, methyl (S)-4-(1-(5-chloro-1H-indazol-7-yl)-1-hydroxy-2-methylpropan-2-yl)piperidine-1-carboxylate]
0.0001 to 10 µM: all assays above

CCOC(=O)N1CCC(C(C)(C)[C@H](O)c2cc(Cl)cc3cn[nH]c23)CC1 [Compound P-0541, ethyl (S)-4-(1-(5-chloro-1H-indazol-7-yl)-1-hydroxy-2-methylpropan-2-yl)piperidine-1-carboxylate]
0.0001 to 10 µM: all assays above

CC(=O)N1CCC(C(C)(C)[C@H](O)c2cc(Cl)cc3cn[nH]c23)CC1 [Compound P-0542, (S)-1-(4-(1-(5-chloro-1H-indazol-7-yl)-1-hydroxy-2-methylpropan-2-yl)piperidin-1-yl)ethan-1-one]
0.0001 to 10 µM: all assays above

CCCC(=O)N1CCC(C(C)(C)[C@H](O)c2cc(Cl)cc3cn[nH]c23)CC1 [Compound P-0543, (S)-1-(4-(1-(5-chloro-1H-indazol-7-yl)-1-hydroxy-2-methylpropan-2-yl)piperidin-1-yl)butan-1-one]
0.0001 to 10 µM: all assays above

CC(C)C(=O)N1CCC(C(C)(C)[C@H](O)c2cc(Cl)cc3cn[nH]c23)CC1 [Compound P-0544, (S)-1-(4-(1-(5-chloro-1H-indazol-7-yl)-1-hydroxy-2-methylpropan-2-yl)piperidin-1-yl)-2-methylpropan-1-one]
0.0001 to 10 µM: all assays above

CC(C)CC(=O)N1CCC(C(C)(C)[C@H](O)c2cc(Cl)cc3cn[nH]c23)CC1 [Compound P-0545, (S)-1-(4-(1-(5-chloro-1H-indazol-7-yl)-1-hydroxy-2-methylpropan-2-yl)piperidin-1-y1)-3-methylbutan-1-one]
0.0001 to 10 µM: all assays above

CC(C)(C1CCN(C(=O)C2CCOCC2)CC1)[C@H](O)c1cc(Cl)cc2cn[nH]c12 [Compound P-0546, (S)-(4-(1-(5-chloro-1H-indazol-7-yl)-1-hydroxy-2-methylpropan-2-yl)piperidin-1-yl)(tetrahydro-2H-pyran-4-yl)methanone]
0.0001 to 10 µM: all assays above

CN(C)CC(=O)N1CCC(C(C)(C)[C@H](O)c2cc(Cl)cc3cn[nH]c23)CC1 [Compound P-0547, (S)-1-(4-(1-(5-chloro-1H-indazol-7-yl)-1-hydroxy-2-methylpropan-2-yl)piperidin-1-yl)-2-(dimethylamino) ethan-1-one]
0.0001 to 10 µM: all assays above

CC(C)(C1CCN(C(=O)c2ccc(Cl)cn2)CC1)[C@H](O)c1cc(Cl)cc2cn[nH]c12 [Compound P-0548, (S)-(4-(1-(5-chloro-1H-indazol-7-yl)-1-hydroxy-2-methylpropan-2-yl)piperidin-1-yl)(5-chloropyridin-2-yl)methanone]
0.0001 to 10 µM: all assays above

CCNC(=O)N1CCC(C(C)(C)[C@H](O)c2cc(Cl)cc3cn[nH]c23)CC1 [Compound P-0550, (S)-4-(1-(5-chloro-1H-indazol-7-yl)-1-hydroxy-2-methylpropan-2-yl)-N-ethylpiperidine-1-carboxamide]
0.0001 to 10 µM: all assays above

CC(C)(C1CCN(C(=O)NC2CC2)CC1)[C@H](O)c1cc(Cl)cc2cn[nH]c12 [Compound P-0551, (S)-4-(1-(5-chloro-1H-indazol-7-yl)-1-hydroxy-2-methylpropan-2-yl)-N-cyclopropylpiperidine-1-carboxamide]
0.0001 to 10 µM: all assays above

CC(C)(C1CCN(C(=O)NC2CCC2)CC1)[C@H](O)c1cc(Cl)cc2cn[nH]c12 [Compound P-0552, (S)-4-(1-(5-chloro-1H-indazol-7-yl)-1-hydroxy-2-methylpropan-2-yl)-N-cyclobutylpiperidine-1-carboxamide]
0.0001 to 10 µM: all assays above

COCCCNC(=O)N1CCC(C(C)(C)[C@H](O)c2cc(Cl)cc3cn[nH]c23)CC1 [Compound P-0553, (S)-4-(1-(5-chloro-1H-indazol-7-yl)-1-hydroxy-2-methylpropan-2-yl)-N-(3-methoxypropyl) piperidine-1-carboxamide]
0.0001 to 10 µM: all assays above

CC(C)(C1CCN(C(=O)Nc2cccnc2)CC1)[C@H](O)c1cc(Cl)cc2cn[nH]c12 [Compound P-0554, (S)-4-(1-(5-chloro-1H-indazol-7-yl)-1-hydroxy-2-methylpropan-2-yl)-N-(pyridin-3-yl)piperidine-1-carboxamide]
0.0001 to 10 µM: all assays above

CC(C)(C1CCN(C(=O)NC(=O)c2ccccc2)CC1)[C@H](O)c1cc(Cl)cc2cn[nH]c12 [Compound P-0555, (S)-N-benzoyl-4-(1-(5-chloro-1H-indazol-7-yl)-1-hydroxy-2-methylpropan-2-yl)piperidine-1-carboxamide]
0.0001 to 10 µM: all assays above

CC(C)(C1CCN(C(=O)NCCS(C)(=O)=O)CC1)[C@H](O)c1cc(Cl)cc2cn[nH]c12 [Compound P-0556, (S)-4-(1-(5-chloro-1H-indazol-7-yl)-1-hydroxy-2-methylpropan-2-yl)-N-(2-(methylsulfonyl)ethyl)piperidine-1-carboxamide]
0.0001 to 10 µM: all assays above

CCS(=O)(=O)N1CCC(C(C)(C)[C@H](O)c2cc(Cl)cc3cn[nH]c23)CC1 [Compound P-0557, (S)-1-(5-chloro-1H-indazol-7-yl)-2-(1-(ethylsulfonyl)piperidin-4-yl)-2-methylpropan-1-ol]
0.0001 to 10 µM: all assays above

CC(C)(C1CCN(C(=O)Nc2ccc(F)nc2)CC1)C(O)c1cc(Cl)cc2cn[nH]c12 (stereo not drawn) [Compound P-0558, 4-(1-(5-chloro-1H-indazol-7-yl)-1-hydroxy-2-methylpropan-2-yl)-N-(6-fluoropyridin-3-yl)piperidine-1-carboxamide]
0.0001 to 10 µM: all assays above

CC(C)(C1CCN(C(=O)Nc2ccc(F)nc2)CC1)[C@H](O)c1cc(Cl)cc2cn[nH]c12 [Compound P-0559, (S)-4-(1-(5-chloro-1H-indazol-7-yl)-1-hydroxy-2-methylpropan-2-yl)-N-(6-fluoropyridin-3-yl)piperidine-1-carboxamide]
0.0001 to 10 µM: all assays above

CC(C)(C1CCN(C(=O)NCC2CC2)CC1)[C@H](O)c1cc(Cl)cc2cn[nH]c12 [Compound P-0560, (S)-4-(1-(5-chloro-1H-indazol-7-yl)-1-hydroxy-2-methylpropan-2-yl)-N-(cyclopropylmethyl) piperidine-1-carboxamide]
0.0001 to 10 µM: all assays above

CC(C)(C1CCN(C(=O)NCCC(F)(F)F)CC1)[C@H](O)c1cc(Cl)cc2cn[nH]c12 [Compound P-0561, (S)-4-(1-(5-chloro-1H-indazol-7-yl)-1-hydroxy-2-methylpropan-2-yl)-N-(3,3,3-trifluoropropyl) piperidine-1-carboxamide]
0.0001 to 10 µM: all assays above
